Measurements taken from BigSolDB 2.1.

CC[n+]1ccccc1.F[P-](F)(F)(F)(F)F
solubility (mole fraction)
Conditions | in ethanol | in water
278.15 K | 8.4e-05 | 0.000474
283.15 K | 0.000121 | 0.000581
288.15 K | 0.000171 | 0.000711
293.15 K | 0.000224 | 0.000857
298.15 K | 0.000324 | 0.00105
303.15 K | 0.000561 | 0.0013
308.15 K | 0.00061 | 0.00159
313.15 K | 0.000718 | 0.00186
318.15 K | 0.000976 | 0.00216
323.15 K | 0.0015 | 0.0026
328.15 K | 0.00189 | 0.00325
333.15 K | 0.00252 | 0.00387
338.15 K | 0.00308 | 0.00454
343.15 K | 0.00389 | 0.00535
